These are literature values, as cited in patent US9550991B2, “Transcription factor decoys” (PROCARTA […]., priority 2010, dated 2017).

Entries after “also recorded” stand apart in the source; their conditions may differ.

The conditions of series [1]: physiological buffers, biological fluids, salt, dilution, storage.

Turning to `Cc1cc(N)c2ccccc2[n+]1CCCCCCCCCC[n+]1c(C)cc(N)c2ccccc21` [dequalinium], the “stability of complexes formed with DNA” value in series [1] was “unstable over time”.
With `Nc1c2c([n+](CCCCCCCCCC[n+]3c4c(c(N)c5ccccc53)CCCC4)c3ccccc13)CCCC2.[Cl-].[Cl-]` [Compound 7, 10,10′-(decane-1,10-diyl)bis(9-amino-1,2,3,4-tetrahydroacridinium) dichloride], the “in vitro toxicity compared to dequalinium” value is “lower toxicity in vitro compared to dequalinium; also recorded: less in vitro toxicity than dequalinium”. Also, in series [1], the “stability of complexes formed with DNA” value is given as “forms more stable complexes”.
